Test results taken from US20260207656A1, “COMPOSITION FOR PREVENTING AND/OR TREATING METABOLIC DISORDERS AND METHOD OF ITS PREPARATION” (Pharmako Biotechnologies Pty Ltd, priority 2022, published 2026).

Test: In vivo study in rats fed a high-fat diet for 3 weeks (Example 2): body weight, blood glucose, liver weight, hepatic enzymes
Design: species or system Sprague-Dawley rats
Protocol: Sprague-Dawley rats (8-week-old; OzGene, formerly Animal Resources Centre, Perth) were fed a high-fat diet (22% fat/44% energy from fat, sourced from Specialty Feeds, Glen Forrest WA) where animals were provided access to food ad libitum for a period of 3 weeks. The rats were divided into groups and administered treatments as follows: (i) PBS (negative control), (ii) INU-BEN (1 g/kg), (iii) orlistat (tetrahydrolipstatin) (positive control; 75 mg/kg; Dayang Chem (Hangzhou) Co., Ltd) and (iv) a combination group of INU-BEN (1 g/kg) and orlistat (75 mg/kg). The rats were treated daily between […]. The experimental studies involved monitoring body weight daily, prior to dosing. Thereafter, blood samples were collected (by tail vein) prior to the rats being euthanized and were analysed for blood glucose levels and liver enzyme concentrations. The rats were dissected and analysed for fat pad weight and liver weight. The rat microbiomes were also analysed at the completion of the 3-week treatment period via faecal samples.

CCCCCCCCCCC[C@@H](C[C@@H]1OC(=O)[C@H]1CCCCCC)OC(=O)[C@H](CC(C)C)NC=O [orlistat, tetrahydrolipstatin]
plasma hepatic enzyme concentrations (LDH, ALT, AST) (after 3 weeks of treatment, FIGS. 7A-7C): does not exert a positive impact on plasma hepatic enzyme concentrations | body weight gain (change in rodent body weight normalized to original body weight) (daily treatment for 3 weeks, INU-BEN 1 g/kg, orlistat 75 mg/kg, vs PBS negative control, FIG. 3/4): performed about the same
